For data set [1], the system named is MEF-DKO murine fibroblasts. As to the kind of experiment: Apoptosis of wild-type MEF and Bax/Bak-deficient MEF-DKO fibroblasts (Annexin V-Cy3, flow cytometry). Type of data set: cell-based. An excerpt:
The graph (FIG. 6A) corresponds to a time course of cell death (quantified by flow cytometry by means of the Annexin V-Cy3 test) of MEF wild-type murine fibro-blasts compared with MEF-DKO murine fibroblasts.

The subject of data set [2] is HeLa cells. As to the kind of experiment: Cytotoxicity in HeLa cells by LDH release. Type of data set: cell-based. Here is the method: (A) HeLa cells were incubated for 6 h in the presence of 10 μM of poropeptide FITC-R8-Bax or of control peptide R8-Bax [Scr] (“scramble” version of the poropeptide), and then observed under an epifluorescence microscope. […] Scale 10 μm. […] HeLa cells were treated with increasing concentrations (5, 10, 25 and 50 μM) of peptide […] or […]. The cytotoxicity was determined by measuring the cellular release of lactate dehydrogenase (LDH) after 3, 6 or 24 h of incubation (n=4). […] The results are given in means and standard deviations. […] (25 μM). The cytotoxicity was determined by measuring the cellular release of lactate dehydrogenase (LDH) after 3, 6 or 24 h of incubation in the presence of 100 μM of zVAD.fmk or of buffer alone (‘DMSO’). The results are given as means and standard deviations. (D) Death rate (apoptosis/necrosis) of HeLa cells treated with poropeptide R8-Bax. The type of cell death was determined 24 h after transfection by observation of cell permeability to propidium iodide (necrosis) or of nuclear morphology after DNA staining with Hoechst 33342 (apoptosis). The green cells (expressing GFP) were visualized by epifluorescence microscopy. Approximately 300 cells were counted per experiment. The results are a mean of three independent experiments (the standard deviation is also represented).

Data set [3] has as its system HT-1080 cells. Description: Cell death of HT-1080 cells expressing GFP fused to Bax membrane insertion fragments. Type of data set: cell-based, human. Particulars: zVAD.fmk 100 μM. The method, then:
The various constructs were transfected into human cells cultured in vitro (HT-1080 and SK-MEL-28), and then the subcellular localization and the cytotoxicity induced by the Bax membrane insertion fragments fused to GFP were determined.
FIG. 5A gives the death rate (apoptosis/necrosis) of HT-1080 cells expressing GFP alone or as a fusion with various membrane insertion fragments of the Bax death protein. The cells were treated (+) or not (−) with the general caspase inhibitor zVAD.fmk (100 μM). Cell death was quantified 24 h after transfection by counting the number of green cells (expressing GFP) under an epifluorescence microscope. The type of cell death (apoptosis and necrosis) was determined through the membrane permeability to propidium iodide (necrosis) and the nuclear morphology (condensed or fragmented nuclei) after staining with Hoechst 33342 (apoptosis). […] The results represent the mean values (with the standard deviations) of the three experiments.
In this experiment, the cell death was quantified using the Annexin-V-Cyanine 3 test by flow cytometry 24 h after transient transfection of the cells with the plasmids of interest.

Data set [4] deals with isolated mitochondria. Description: Cytochrome c release from isolated mitochondria (Western blotting of supernatant). Type of data set: biochemical. As to conditions: for incubation time at which cytochrome c is released: 10 μM. Here is the method: The ex cellulo activity of poropeptide-Bax (106-134) was tested by determining its ability to promote the release of cytochrome c from the intermembrane space of isolated mitochondria. The results obtained are shown by FIG. 9 (A).
The peptide is incubated with the mitochondria for 5, 15, 30 or 60 min, and the mitochondrial release of cytochrome c into the supernatant (SN) is measured by Western blotting. The mitochondrial fractions (Mito) are calibrated using an antibody directed against the HSP70 or ATPase (subunit 6) mitochondrial proteins. With poropeptide-Bax (106-134), cytochrome c is released from the intermembrane space of the mitochondrion at 10 μM and in 5 min of incubation. No release is observed when an artificial antimicrobial peptide (KLAK) of sequence SEQ ID No. 2 KLAKLAKKLAKLAK is used.
A general note: In western blotting, separated proteins are transferred to a membrane and probed.

Data set [5] relates to SK-MEL-28 human melanoma cells. Description: Cell viability after microinjection into SK-MEL-28 melanoma cells. Type of data set: cell-based. Particulars: SK-MEL-28, 12 h after microinjection; for cell death / viability after microinjection: versus control. Here is the method: Poropeptide-Bax was then mixed with a solution of dextran-fluorescein (so as to allow its visualization by epifluorescence microscopy), and then microinjected into SK-MEL-28 human melanoma cells. Cell viability was then monitored and quantified 12 hours after microinjection.
(A) Micrographs showing SK-MEL-28 human melanoma cells injected with Dextran-FITC fluorescent tracer alone (‘mock’) or mixed with poropeptide-Bax. The cells were photographed 12 h after microinjection. […] Magnification×800. (B) Cell viability after microinjection of poropeptide-Bax or of Bax-BH3, KLAK or R8 peptide. The cells microinjected were visualized by means of the Dextran-FITC tracer. […] The data shown are representative of 2 independent experiments giving the same results.

Data set [6] relates to Zebrafish eggs. As to the kind of experiment: Microinjection into zebrafish eggs (mortality, malformations). Type of data set: in vivo, Danio rerio. An excerpt: Poropeptide-Bax was microinjected in vivo. The zebrafish (Danio rerio) model was used because (i) the apoptotic machinery is conserved between human cells and fish cells; (ii) the egg corresponds to an integrated cell system compared with isolated mitochondria; (iii) zebrafish eggs can be easily injected routinely.
(A) Zebrafish eggs were microinjected at the 1-2 cell(s) stage with increasing concentrations of poro-peptide-Bax, of Bax-BH3 peptide or with ultrapure water ('mock'). A concentration of 100 μM inside the microinjection capillary corresponds to approximately […] molecules of peptide per egg. […] The data shown are representative of 2 independent experiments giving the same results. (B) Embryonic morphology 24 h after microinjection (100 μM of peptide).

In data set [7] the test system is mitochondria isolated from rat liver. As to the kind of experiment: Swelling and depolarization of mitochondria isolated from rat liver. Type of data set: biochemical. Here is the method:
Poropeptide-Bax (106-134) induces swelling of the mitochondria (DD50=1.68±0.39 μM) and a drop in their transmembrane potential (SD50=3.98±0.57 μM). These two parameters were measured using mitochondria isolated from rat liver, incubated in the presence of various concentrations of poropeptide-Bax (106-134) (NT=not treated).

For data set [8], the system named is HeLa cells. Description: Internalization of fluorescent peptides by HeLa cells (epifluorescence microscopy). Type of data set: cell-based. Here is the method:
The poropeptide of sequence SEQ ID No. 1, comprising a polyarginine N-terminal extension (R8) separated by a glycine residue, was used. A fluorescein isothiocyanate (FITC) group was added in the C-terminal position so as to allow its visualization by epifluorescence microscopy. The R8-Scr-FITC peptide is a “scramble” sequence of the sequence present in the R8-Bax [106-134]-FITC peptide, i.e. a control sequence in which the amino acids (their order in the sequence) have been mixed-up.
(A) HeLa cells were incubated for 6 h in the presence of 10 μM of poropeptide FITC-R8-Bax or of control peptide R8-Bax [Scr] (“scramble” version of the poropeptide), and then observed under an epifluorescence microscope. […] Scale 10 μm. […] The cytotoxicity was determined by measuring the cellular release of lactate dehydrogenase (LDH) after 3, 6 or 24 h of incubation (n=4). […] The cytotoxicity was determined by measuring the cellular release of lactate dehydrogenase (LDH) after 3, 6 or 24 h of incubation in the presence of 100 μM of zVAD.fmk or of buffer alone (‘DMSO’). […] The type of cell death was determined 24 h after transfection by observation of cell permeability to propidium iodide (necrosis) or of nuclear morphology after DNA staining with Hoechst 33342 (apoptosis). […] Approximately 300 cells were counted per experiment. […]

Results on 6 compounds are retold here after patent publication US20120289472A1, “MOLECULES CAPABLE OF INDUCING CELL DEATH BY TARGETING THE MITOCHONDRIA AND APPLICATIONS THEREOF” (priority 2009, published 2012).

Read-outs that look alike come from different tables or passages of the source. Where a SMILES comes first, the peptide text is derived from it. Where no end group is shown, it is not given here. The star is where a group is joined. Cbz = O=C(OCc1ccccc1)*; CH2F = FC* Bounds are passed on as bounds.

Regarding `CN[C@@H]1C[C@H]2O[C@@](C)([C@@H]1OC)n1c3ccccc3c3c4c(c5c6ccccc6n2c5c31)C(=O)NC4` [staurosporine], in data set [1], the “apoptosis induced in MEF-DKO cells” value is reported as “resistant”.

In the case of `COC(=O)C[C@H](NC(=O)[C@H](C)NC(=O)[C@@H](NC(=O)OCc1ccccc1)C(C)C)C(=O)CF` [zVAD.fmk, reference compound] (Cbz-Val-Ala-Asp(OMe)-CH2F), in data set [2] (HeLa, zVAD.fmk 100 μM, poropeptide 25 μM, 3, 6 or 24 h), the “effect of caspase inhibitor on cell death induced by poropeptide R8-Bax [106-134] (LDH release)” value is “reduces cell death”. Moreover, the “effect of caspase inhibitor on apoptosis caused by Bax membrane insertion fragments” value in data set [3] is reported as “blocking of the apoptosis”.

Regarding “H-NWGRVVALFYFASKLVLKALSTKVPELIR-OH [poropeptide-Bax (106-134)]”, in data set [4], the “minimum concentration for which cytochrome c release is observed” value is 10 µM and the “incubation time at which cytochrome c is released” value came to 5 min. In addition, the “incubation time at which cytochrome c is released” value in data set [4] (listed as Poropeptide-Bax (106-134)) is given as at most 5 min. Moreover, in data set [5], the “cell morphology after microinjection” value is recorded as “characteristic morphological manifestations of apoptosis” and the “cell death / viability after microinjection” value (“cell death / viability” below) is listed as “substantial cell death”. Further, in data set [6] (24 h after microinjection, 100 μM of peptide, compared with BH3 peptide group), the embryonic morphology entry was “Severe malformations”. Further, the “cytotoxic effects after introduction into zebrafish eggs” value in data set [6] (increasing concentrations, microinjection at 1-2 cell stage) is “dose-dependent cytotoxic effects”. The EC50 in data set [7] (read-out: drop in transmembrane potential (SD50)) came to 3.98 ± 0.57 µM. In addition, in data set [7] (read-out: swelling of the mitochondria (DD50)), the EC50 came out at 1.68 ± 0.39 µM.

Take “KLAKLAKKLAKLAK [artificial antimicrobial peptide, reference compound]”: in data set [4] (incubation 5-60 min), the “cytochrome c release from intermembrane space” value is given as “No release”. The “cell death / viability” value in data set [5] is recorded as “no significant effect”.

Turning to “R8-Bax [106-134]: poropeptide of SEQ ID No. 1 with polyarginine N-terminal extension (R8) separated by a glycine residue, FITC group added (RRRRRRRRGNWGRVVALFYFASKLVLKALCTKVPELIR; also: FITC group added, position not given here; UniProt Q07812 106-134, looked up, fragment)”, in data set [2] (HeLa, 5, 10, 25 and 50 μM, 3, 6 or 24 h), the “cytotoxicity by cellular release of lactate dehydrogenase (LDH)” value is “loss of cell viability which is dose-dependent and incubation time-dependent”. In data set [8] (HeLa cells in culture in vitro), the time to internalization entry is given as “in less than one hour”. Also, the “cytoplasmic labeling of cells” value in data set [8] (HeLa, 10 μM, 6 h) is “strong cytoplasmic labeling”.

For “RRRRRRRR [R8, control peptide, a polyarginine intracellular transduction motif, reference compound]”, the “cell death / viability” value in data set [5] is reported as “viability rates comparable to the control”.
